Laboratory results from patent US20130272978A1, “DIHYDROXYACETONE MONOETHERS” (MERCK PATENT GMBH, priority 2010, published 2013).

Tests used:
[1] = Tanning experiment (liquid skin model); conditions: for L* (Lab values after 24 hours) / a* (Lab values after 24 hours) / b* (Lab values after 24 hours): 1 mmol substance + 1 mmol DL-lysine in ethylene glycol/water, pH=7, after 24 h, UV-VIS spectrometer; for Kinetics of tanning reaction compared with DHA: documented via photos; for Coloration/shade compared with DHA: from Lab values after 24 h; for Speed of tanning reaction relative to DHA: optical assessment
Method: Tanning Experiment (Liquid Skin Model)
1 mmol of the self-tanner substance to be tested are dissolved in 94 ml of ethylene glycol and 6 ml of water (potassium hydrogenphthalate-buffered to pH=7) with 146 mg of DL-lysine (1 mmol) and stirred for 24 hrs. (=liquid skin model). The kinetics are documented via photos. After 24 h, the colour values (L*a*b* system) of the solution are measured by UV-VIS spectrometer (Varian Cary-50) in order to be able to assess the effect on the skin tones.

[2] = Solubility in cosmetic oils (Finsolv TN); type: physicochemical

SMILES | L* (Lab values after 24 hours) [1] | a* (Lab values after 24 hours) [1] | b* (Lab values after 24 hours) [1] | Kinetics of tanning reaction compared with DHA [1] | Coloration/shade compared with DHA [1] | Speed of tanning reaction relative to DHA [1] | Solubility in cosmetic oil [2]
O=C(CO)COCc1ccccc1 [MBDE, 1-benzyloxy-3-hydroxypropan-2-one] | 42.6 | 32.0 | 70.0 | faster tanning reaction than DHA | strong shift towards a redder shade | doubling of the speed | 0.24%
O=C(CO)COCC1CCCCC1 [MCHMDE, monocyclohexylmethyl-DHA ether] | 45.3 | 18.2 | 50.5 |  | strong shift towards a more yellow shade |  | 0.97%
CCCCC(CC)COCC(=O)CO (centres unmarked) [MEHDE, mono-2-ethylhexyl-DHA ether] | 86.5 | 4.7 | 24.3 |  | paler coloration |  | 2.25%
CCCCCCCOCC(=O)CO [MHDE, 1-heptyloxy-3-hydroxypropan-2-one] | 0.1 | 0.4 | 0.2 | faster tanning reaction than DHA | darker coloration | doubling of the speed | 
